Experimental data as given in patent US20250195530A1, “POLQ INHIBITORS” (ASTRAZENECA AB, priority 2022, published 2025).
Where two headings read alike, the source gives them in different places.

Tested on: DLD-1 BRCA2−/− cells
Experiment: Homologous recombination synthetic lethal inhibition of proliferation, DLD-1 BRCA2-/- (Cell Titre Glo 3D)
Format: cell-based
Conditions: for IC50: Homo sapiens; for POLQ PD Prolif Lumin BRCA2 −/− mean pIC50: DLD-1 BRCA2 −/−
Procedure, shortened: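 Cells are seeded in RPMI 1640 (phenol red free, 10% FBS, GlutaMAX) onto pre-dosed compound (10 μM to 0.51 nM, three-fold). Plates are incubated at 37 °C, and medium plus compound are refreshed on day 6. Viability is read by CellTiter-Glo 3D at day 7 (DLD-1) or day 12 (DLD-1 BRCA2−/−), and the IC50 is fitted.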

[1] = DLD-1, DLD-1 BRCA2-/- proliferation, column head only partly shown, read-out: POLQ PD Prolif Lumin (converted)
[2] = DLD-1, proliferation, luminescence, taken as DLD-1 BRCA2-/-, read-out: POLQ PD Prolif Lumin (converted)
[3] = DLD-1, first proliferation column (c5), taken as DLD-1 BRCA2-/-, read-out: POLQ PD Prolif Lumin (converted)
[4] = DLD-1, 288 h, DLD-1 BRCA2−/− cells, 12 days, read-out: POLQ PD Prolif Lumin BRCA2 −/− mean pIC50 (converted)
[5] = DLD-1, first proliferation column (c5), DLD-1 BRCA2-/-, read-out: POLQ PD Prolif Lumin (converted)

CC1(Oc2ncnc3c2nc(-c2ccc(CCCCC(=O)O)cc2Cl)n3Cc2cccc(Cl)c2)CC1 [Example T289, 5-(3-chloro-4-(9-(3-chlorobenzyl)-6-(1-methylcyclopropoxy)-9H-purin-8-yl)phenyl)pentanoic acid]
IC50 [1]: 126 nM

CC1(Oc2ncnc3c2nc(-c2ccc(O[C@H]4CC[C@H](C(=O)O)CC4)cc2Cl)n3Cc2ccccc2C#N)CC1 [Example U19, (1r,4r)-4-(3-chloro-4-(9-(2-cyanobenzyl)-6-(1-methylcyclopropoxy)-9H-purin-8-yl)phenoxy)cyclohexane-1-carboxylic acid]
POLQ PD Prolif Lumin BRCA2 −/− mean pIC50 (mean): 6.6

Cc1ccnc(Cn2c(-c3ccc(C(=O)N4CCC[C@H]4C#N)cc3Cl)nc3c(OC4(C)CC4)ncnc32)c1 [Example T404, (S)-1-(3-chloro-4-(6-(1-methylcyclopropoxy)-9-((4-methylpyridin-2-yl)methyl)-9H-purin-8-yl)benzoyl)pyrrolidine-2-carbonitrile]
IC50 [2]: 1260 nM

CNC(=O)N1CC(Oc2ccc(-c3nc4c(OC5(C)CC5)ncnc4n3Cc3cc(C)ccn3)c(Cl)c2)C1 [Example T343, 3-(3-chloro-4-(6-(1-methylcyclopropoxy)-9-((4-methylpyridin-2-yl)methyl)-9H-purin-8-yl)phenoxy)-N-methylazetidine-1-carboxamide]
IC50 [3]: 398 nM

CC1(Oc2ncnc3c2nc(-c2ccc(OCCN4CCNC(C)(C)C4=O)cc2Cl)n3Cc2ccccc2)CC1 [Example R16, 1-(2-(4-(9-benzyl-6-(1-methylcyclopropoxy)-9H-purin-8-yl)-3-chlorophenoxy)ethyl)-3,3-dimethylpiperazin-2-one]
IC50 [4]: 63.1 nM

CC1(Oc2ncnc3c2nc(-c2ccc(CC(N)=O)cc2Cl)n3Cc2nnc(C3CC3)s2)CC1 [Example T20, 2-(3-chloro-4-(9-((5-cyclopropyl-1,3,4-thiadiazol-2-yl)methyl)-6-(1-methylcyclopropoxy)-9H-purin-8-yl)phenyl)acetamide]
IC50 (DLD-1, DLD-1 BRCA2 −/− cells, mean, read-out: POLQ PD Prolif Lumin BRCA2 −/− mean pIC50 (converted)): 2510 nM

CNC(=O)C1CN(c2ccc(-c3nc4c(OC5(C)CC5)ncnc4n3Cc3cc(C)ccn3)c(Cl)c2)C1 [Example T341, 1-(3-chloro-4-(6-(1-methylcyclopropoxy)-9-((4-methylpyridin-2-yl)methyl)-9H-purin-8-yl)phenyl)-N-methylazetidine-3-carboxamide]
IC50 [3]: 316 nM

Cc1ccnc(Cn2c(-c3ccc(N4CC[C@H](C(N)=O)C4)cc3Cl)nc3c(OC4(C)CC4)ncnc32)c1 [Example T340, (S)-1-(3-chloro-4-(6-(1-methylcyclopropoxy)-9-((4-methylpyridin-2-yl)methyl)-9H-purin-8-yl)phenyl)pyrrolidine-3-carboxamide]
IC50 [3]: 1260 nM

Cc1ccnc(Cn2c(-c3ccc(O[C@@H]4CC[C@@H](O)C4)cc3Cl)nc3c(OC4(C)CC4)ncnc32)c1 (relative stereo) [Example T330, rel-(1R,3R)-3-(3-chloro-4-(6-(1-methylcyclopropoxy)-9-((4-methylpyridin-2-yl)methyl)-9H-purin-8-yl)phenoxy)cyclopentan-1-ol]
IC50 [3]: 200 nM

CC1(Oc2ncnc3c2nc(-c2ccc(O[C@H]4CC[C@@H](C(=O)O)CC4)cc2Cl)n3Cc2cc(Cl)ccc2F)CC1 [Example U44, (1s,4s)-4-(3-chloro-4-(9-(5-chloro-2-fluorobenzyl)-6-(1-methylcyclopropoxy)-9H-purin-8-yl)phenoxy)cyclohexane-1-carboxylic acid]
POLQ PD Prolif Lumin BRCA2 −/− mean pIC50 (mean): 7.2

Cc1ccnc(Cn2c(-c3ccc(OCCNC(=O)CO)cc3Cl)nc3c(OC4(C)CC4)ncnc32)c1 [Example T227, N-(2-(3-chloro-4-(6-(1-methylcyclopropoxy)-9-((4-methylpyridin-2-yl)methyl)-9H-purin-8-yl)phenoxy)ethyl)-2-hydroxyacetamide]
IC50 [1]: 316 nM

Cc1ccnc(Cn2c(-c3ccc(C(=O)N4CC[C@@H](C#N)C4)cc3Cl)nc3c(OC4(C)CC4)ncnc32)c1 [Example T405, (R)-1-(3-chloro-4-(6-(1-methylcyclopropoxy)-9-((4-methylpyridin-2-yl)methyl)-9H-purin-8-yl)benzoyl)pyrrolidine-3-carbonitrile]
IC50 [2]: 1260 nM

Cc1ccnc(Cn2c(-c3ccc(CCNC(=O)[C@@H](C)O)cc3Cl)nc3c(OC4(C)CC4)ncnc32)c1 [Example T368, (R)-N-(3-chloro-4-(6-(1-methylcyclopropoxy)-9-((4-methylpyridin-2-yl)methyl)-9H-purin-8-yl)phenethyl)-2-hydroxypropanamide]
IC50 [3]: 631 nM

CNC(=O)CNc1ccc(-c2nc3c(OC4(C)CC4)ncnc3n2Cc2cc(C)ccn2)c(Cl)c1 [Example T131, 2-((3-chloro-4-(6-(1-methylcyclopropoxy)-9-((4-methylpyridin-2-yl)methyl)-9H-purin-8-yl)phenyl)amino)-N-methylacetamide]
IC50 [5]: 794 nM

CNC(=O)CCc1ccc(-c2nc3c(OC4(C)CC4)ncnc3n2Cc2cc(C)ccn2)c(Cl)c1 [Example T214, 3-(3-chloro-4-(6-(1-methylcyclopropoxy)-9-((4-methylpyridin-2-yl)methyl)-9H-purin-8-yl)phenyl)-N-methylpropanamide]
IC50 [1]: 316 nM

CC1(Oc2ncnc3c2nc(-c2ccc(OCCN4CCNCC4)cc2Cl)n3CCc2ccncc2)CC1 [Example L1, 8-(2-chloro-4-(2-(piperazin-1-yl)ethoxy)phenyl)-6-(1-methylcyclopropoxy)-9-(2-(pyridin-4-yl)ethyl)-9H-purine]
IC50 [4]: > 10000 nM

Cc1ccnc(Cn2c(-c3ccc(C(=O)NC[C@H](C)F)cc3Cl)nc3c(OC4(C)CC4)ncnc32)c1 [Example T190, (S)-3-chloro-N-(2-fluoropropyl)-4-(6-(1-methylcyclopropoxy)-9-((4-methylpyridin-2-yl)methyl)-9H-purin-8-yl)benzamide]
IC50 [5]: 398 nM

CC(CCc1ccc(-c2nc3c(OC4(C)CC4)ncnc3n2Cc2cccc(Cl)c2)c(Cl)c1)C(=O)O (racemic) [Example T290, 4-(3-chloro-4-(9-(3-chlorobenzyl)-6-(1-methylcyclopropoxy)-9H-purin-8-yl)phenyl)-2-methylbutanoic acid]
IC50 [1]: 251 nM

CNC(=O)COc1ccc(-c2nc3c(OC4(C)CC4)ncnc3n2CCc2ccccc2)c(Cl)c1 [Example T195, 2-(3-chloro-4-(6-(1-methylcyclopropoxy)-9-phenethyl-9H-purin-8-yl)phenoxy)-N-methylacetamide]
IC50 [5]: 1260 nM

CC(C)(COc1ccc(-c2nc3c(OC4(C)CC4)ncnc3n2Cc2cccc(Cl)c2)c(Cl)c1)CC(=O)O [Example T436, 4-(3-chloro-4-(9-(3-chlorobenzyl)-6-(1-methylcyclopropoxy)-9H-purin-8-yl)phenoxy)-3,3-dimethylbutanoic acid]
IC50 [2]: 200 nM

Cc1ccnc(Cn2c(-c3ccc(OCC4COC4)cc3Cl)nc3c(OC4(C)CC4)ncnc32)c1 [Example T193, 8-(2-chloro-4-(oxetan-3-ylmethoxy)phenyl)-6-(1-methylcyclopropoxy)-9-((4-methylpyridin-2-yl)methyl)-9H-purine]
IC50 [5]: 251 nM

CC1(Oc2ncnc3c2nc(-c2cccc(O[C@H]4C[C@H](C(=O)O)C4)c2Cl)n3Cc2cccc(Cl)c2)CC1 [Example T256, (1r,3r)-3-(2-chloro-3-(9-(3-chlorobenzyl)-6-(1-methylcyclopropoxy)-9H-purin-8-yl)phenoxy)cyclobutane-1-carboxylic acid]
POLQ PD Prolif Lumin (DLD-1 BRCA2-/- proliferation, column head only partly shown): 6.9

CC1(Oc2ncnc3c2nc(-c2ccc(OCCOCCC(=O)O)cc2Cl)n3Cc2cccc(Cl)c2)CC1 [Example T303, 3-(2-(3-chloro-4-(9-(3-chlorobenzyl)-6-(1-methylcyclopropoxy)-9H-purin-8-yl)phenoxy)ethoxy)propanoic acid]
IC50 [3]: 126 nM

CC(CCCOc1ccc(-c2nc3c(OC4(C)CC4)ncnc3n2Cc2cccc(Cl)c2)c(Cl)c1)C(=O)O (single isomer, unassigned) [Example T438, 5-(3-chloro-4-(9-(3-chlorobenzyl)-6-(1-methylcyclopropoxy)-9H-purin-8-yl)phenoxy)-2-methylpentanoic acid]
IC50 [2]: 126 nM

COc1ccc(Cn2c(-c3ccc(CC(N)=O)cc3Cl)nc3c(OC4(C)CC4)ncnc32)cc1 [Example T106, 2-(3-chloro-4-(9-(4-methoxybenzyl)-6-(1-methylcyclopropoxy)-9H-purin-8-yl)phenyl)acetamide]
IC50 [5]: 631 nM

Cc1ccnc(Cn2c(-c3ccc(OCCN(C)C)cc3Cl)nc3c(OC4(C)CC4)nccc32)c1 [Example T381, 2-(3-chloro-4-(4-(1-methylcyclopropoxy)-1-((4-methylpyridin-2-yl)methyl)-1H-imidazo[4,5-c]pyridin-2-yl)phenoxy)-N,N-dimethylethan-1-amine]
IC50 [3]: 251 nM

CC(=O)N1CCN(CCOc2ccc(-c3nc4c(OC5(C)CC5)ncnc4n3Cc3cc(C)ccn3)c(Cl)c2)CC1 [Example T607, 1-(4-(2-(3-chloro-4-(6-(1-methylcyclopropoxy)-9-((4-methylpyridin-2-yl)methyl)-9H-purin-8-yl)phenoxy)ethyl)piperazin-1-yl)ethan-1-one]
IC50 (DLD-1, first proliferation column, DLD-1 BRCA2-/-, read-out: POLQ PD Prolif Lumin (converted)): 126 nM

CCC(C)c1ccc(-c2nc3c(OC4(C)CC4)ncnc3n2Cc2cc(C)ccn2)c(Cl)c1 (racemic) [Example T232, 8-(4-(sec-butyl)-2-chlorophenyl)-6-(1-methylcyclopropoxy)-9-((4-methylpyridin-2-yl)methyl)-9H-purine]
IC50 [1]: > 1580 nM
